{
  "source": "paper PMC3701070",
  "about": "(PLoS ONE, 2013)",
  "experiment_in_all_cases": "Cell growth assay",
  "format_in_all_cases": "cell-based",
  "key": {"[1]": {"test_system": "C-4 I", "details": "Homo sapiens, 72 h, RAF WT, RAS WT, 3-day, read-out: gIC50", "method_in_brief": "(§1)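 Luminescent cell viability signal (CellTiter-Glo) serves as the read-out. Measurements bracket a 72 h window, with a baseline at t = 0. Values are gIC50s for inhibition of growth.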"}, "[2]": {"test_system": "EFM-19", "details": "Homo sapiens, 72 h; EFM-19, RAF WT, RAS WT, 3-day; read-out: gIC50", "method_in_brief": "as §1"}, "[3]": {"test_system": "NCI-H2122", "details": "Homo sapiens, 72 h; NCI-H2122, RAF WT, RAS WT, 3-day; read-out: gIC50", "method_in_brief": "as §1"}, "[4]": {"test_system": "A204", "details": "Homo sapiens, 72 h; A204, RAF WT, RAS WT, 3-day; read-out: gIC50", "method_in_brief": "as §1"}, "[5]": {"test_system": "HT-3", "details": "Homo sapiens, 72 h; HT-3, RAF WT, RAS WT, 3-day; read-out: gIC50", "method_in_brief": "as §1"}, "[6]": {"test_system": "Colo704", "details": "Homo sapiens, COLO 704, 72 h; Colo704, RAF WT, RAS WT, 3-day; read-out: gIC50", "method_in_brief": "as §1"}, "[7]": {"test_system": "H4", "details": "Homo sapiens, 72 h; H4, RAF WT, RAS WT, 3-day; read-out: gIC50", "method_in_brief": "as §1"}, "[8]": {"test_system": "NCI-H1792", "details": "Homo sapiens, 72 h; NCI-H1792, RAF WT, RAS WT, 3-day; read-out: gIC50", "method_in_brief": "as §1"}, "[9]": {"test_system": "SCC-15", "details": "Homo sapiens, 72 h; SCC-15, RAF WT, RAS WT, 3-day; read-out: gIC50", "method_in_brief": "as §1"}, "[10]": {"test_system": "NCI-H358", "details": "Homo sapiens, 72 h; NCI-H358, RAF WT, RAS WT, 3-day; read-out: gIC50", "method_in_brief": "as §1"}, "[11]": {"test_system": "C33A", "details": "Homo sapiens, C-33-A, 72 h, RAF WT, RAS WT, 3-day, read-out: gIC50", "method_in_brief": "as §1"}, "[12]": {"test_system": "JM1", "details": "Homo sapiens, 72 h; JM1, RAF WT, RAS WT, 3-day; read-out: gIC50", "method_in_brief": "as §1"}, "[13]": {"test_system": "SW480", "details": "Homo sapiens, 72 h; SW480, RAF WT, KRAS(G12V), 3-day; read-out: gIC50", "method_in_brief": "as §1"}, "[14]": {"test_system": "FaDu", "details": "Homo sapiens, 72 h, RAF WT, RAS WT, 3-day, read-out: gIC50", "method_in_brief": "as §1"}, "[15]": {"test_system": "NCI-H2030", "details": "Homo sapiens, 72 h; NCI-H2030, RAF WT, RAS WT, 3-day; read-out: gIC50", "method_in_brief": "as §1"}, "[16]": {"test_system": "IGROV1", "details": "Homo sapiens, IGROV-1, 72 h; IGROV1, RAF WT, RAS WT, 3-day; read-out: gIC50", "method_in_brief": "as §1"}, "[17]": {"test_system": "ES-2", "details": "Homo sapiens, 72 h; ES-2, BRAF(V600E), RAS WT, 3-day; read-out: gIC50", "method_in_brief": "as §1"}, "[18]": {"test_system": "NCI-H209", "details": "Homo sapiens, 72 h; NCI-H209, RAF WT, RAS WT, 3-day; read-out: gIC50", "method_in_brief": "as §1"}, "[19]": {"test_system": "OE-21", "details": "Homo sapiens, OE21, 72 h; OE-21, RAF WT, RAS WT, 3-day; read-out: gIC50", "method_in_brief": "as §1"}, "[20]": {"test_system": "HMCB", "details": "Homo sapiens, 72 h, RAF WT, RAS WT, 3-day, read-out: gIC50", "method_in_brief": "as §1"}, "[21]": {"test_system": "Molt-4", "details": "Homo sapiens, 72 h; Molt-4, RAF WT, RAS WT, 3-day; read-out: gIC50", "method_in_brief": "as §1"}, "[22]": {"test_system": "J82", "details": "Homo sapiens, 72 h; J82, RAF WT, RAS WT, 3-day; read-out: gIC50", "method_in_brief": "as §1"}, "[23]": {"test_system": "RPMI-8226", "details": "Homo sapiens, 72 h; RPMI-8226, RAF WT, RAS WT, 3-day; read-out: gIC50", "method_in_brief": "as §1"}, "[24]": {"test_system": "SNU-398", "details": "Homo sapiens, 72 h; SNU-398, RAF WT, RAS WT, 3-day; read-out: gIC50", "method_in_brief": "as §1"}, "[25]": {"test_system": "NCI-H157", "details": "Homo sapiens, 72 h; NCI-H157, RAF WT, RAS WT, 3-day; read-out: gIC50", "method_in_brief": "as §1"}, "[26]": {"test_system": "NCI-H322", "details": "Homo sapiens, 72 h; NCI-H322, RAF WT, RAS WT, 3-day; read-out: gIC50", "method_in_brief": "as §1"}, "[27]": {"test_system": "ACHN", "details": "Homo sapiens, 72 h, RAF WT, RAS WT, 3-day, read-out: gIC50", "method_in_brief": "as §1"}, "[28]": {"test_system": "HCC-2998", "details": "Homo sapiens, 72 h; HCC-2998, RAF WT, KRAS(A146T), 3-day; read-out: gIC50", "method_in_brief": "as §1"}, "[29]": {"test_system": "DLD-1", "details": "Homo sapiens, 72 h; DLD-1, RAF WT, KRAS(G13D), 3-day; read-out: gIC50", "method_in_brief": "as §1"}, "[30]": {"test_system": "A427", "details": "Homo sapiens, A-427, 72 h; A427, RAF WT, RAS WT, 3-day; read-out: gIC50", "method_in_brief": "as §1"}, "[31]": {"test_system": "SCC-12", "details": "Homo sapiens, SCC12, 72 h; SCC-12, RAF WT, RAS WT, 3-day; read-out: gIC50", "method_in_brief": "as §1"}, "[32]": {"test_system": "Kato III", "details": "Homo sapiens, 72 h, RAF WT, RAS WT, 3-day, read-out: gIC50", "method_in_brief": "as §1"}, "[33]": {"test_system": "EKVX", "details": "Homo sapiens, 72 h, RAF WT, RAS WT, 3-day, read-out: gIC50", "method_in_brief": "as §1"}},
  "data": [
    {"compound": "CC(C)(C)c1nc(-c2cccc(NS(=O)(=O)c3c(F)cccc3F)c2F)c(-c2ccnc(N)n2)s1", "note": "[dabrafenib]", "values": [
      {"measurement": "IC50", "setting": "[1]", "value": "> 10", "unit": "µM"},
      {"measurement": "IC50", "setting": "[2]", "value": "> 10", "unit": "µM"},
      {"measurement": "IC50", "setting": "[3]", "value": "> 10", "unit": "µM"},
      {"measurement": "IC50", "setting": "[4]", "value": "> 10", "unit": "µM"},
      {"measurement": "IC50", "setting": "[5]", "value": "> 10", "unit": "µM"},
      {"measurement": "IC50", "setting": "[6]", "value": "> 10", "unit": "µM"},
      {"measurement": "IC50", "setting": "[7]", "value": 0.619, "unit": "µM"},
      {"measurement": "IC50", "setting": "[8]", "value": "> 10", "unit": "µM"},
      {"measurement": "IC50", "setting": "[9]", "value": "> 10", "unit": "µM"},
      {"measurement": "IC50", "setting": "[10]", "value": "> 10", "unit": "µM"},
      {"measurement": "IC50", "setting": "[11]", "value": "> 10", "unit": "µM"},
      {"measurement": "IC50", "setting": "[12]", "value": "> 10", "unit": "µM"},
      {"measurement": "IC50", "setting": "[13]", "value": "> 10", "unit": "µM"},
      {"measurement": "IC50", "setting": "[14]", "value": "> 10", "unit": "µM"},
      {"measurement": "IC50", "setting": "[15]", "value": "> 10", "unit": "µM"},
      {"measurement": "IC50", "setting": "[16]", "value": "> 10", "unit": "µM"},
      {"measurement": "IC50", "setting": "[17]", "value": 0.053, "unit": "µM"},
      {"measurement": "IC50", "setting": "[18]", "value": "> 10", "unit": "µM"},
      {"measurement": "IC50", "setting": "[19]", "value": "> 10", "unit": "µM"},
      {"measurement": "IC50", "setting": "[20]", "value": "> 10", "unit": "µM"},
      {"measurement": "IC50", "setting": "[21]", "value": "> 10", "unit": "µM"},
      {"measurement": "IC50", "setting": "[22]", "value": "> 10", "unit": "µM"},
      {"measurement": "IC50", "setting": "[23]", "value": 0.263, "unit": "µM"},
      {"measurement": "IC50", "setting": "[24]", "value": "> 10", "unit": "µM"},
      {"measurement": "IC50", "setting": "[25]", "value": "> 10", "unit": "µM"},
      {"measurement": "IC50", "setting": "[26]", "value": "> 10", "unit": "µM"},
      {"measurement": "IC50", "setting": "[27]", "value": 0.294, "unit": "µM"},
      {"measurement": "IC50", "setting": "[28]", "value": "> 10", "unit": "µM"},
      {"measurement": "IC50", "setting": "[29]", "value": "> 10", "unit": "µM"},
      {"measurement": "IC50", "setting": "[30]", "value": "> 10", "unit": "µM"},
      {"measurement": "IC50", "setting": "[31]", "value": "> 10", "unit": "µM"},
      {"measurement": "IC50", "setting": "[32]", "value": "> 10", "unit": "µM"},
      {"measurement": "IC50", "setting": "[33]", "value": "> 10", "unit": "µM"}
    ]}
  ]
}
